Consider one molecule from patent publication US20260191933A1, “PHARMACEUTICAL COMBINATIONS AND USES THEREOF” (The University of Melbourne, priority 2022, published 2026).

The subject of test [1] is ARC insulin receptor signalling (pAKT). The test is described as follows: I.C.V. PZ6005 and/or S.C. liraglutide: ARC pAKT +ve. cells after insulin. In kind it is in vivo, C57BL/6j mice. As to conditions: after 28-day treatment; compared with liraglutide alone group. On the procedure: Mice were injected intraperitoneally with vehicle (PBS) or insulin (3 mU/g, i.p., Actrapid, Nova Nordisk, Denmark) and mice were transcardially perfused (as described above) 15 min with 10% neutral buffered formalin. The brains were post-fixed for 16 h on a rocking platform at RT and then kept for two days in 30% sucrose in PBS to cryoprotect the tissue, before freezing on dry ice. 30 μm sections were cut in the coronal plane throughout the entire rostral-caudal extent of the hypothalamus. Sections were pre-treated for 10 mins in 0.3% glycine, washed in PBS-T and incubated for 10 min in 0.03% SDS. Sections were then blocked in 5% blocking buffer for 1 h at RT and incubated for 48 h with rabbit anti-p-AKT (Ser-473) (1:300; #4060, Cell Signaling Technology, Beverly, MA) in 1% blocking buffer. Sections were then incubated in 5% blocking buffer containing either goat anti-rabbit Alexa Fluor 647 (ab150083, Abcam, Cambridge, UK) or biotinylated goat anti-rabbit (BA-1000, Vector Laboratories, CA, no sodium azide in blocking buffer). […]

Test [2] has as its system ARC CSPG-ECM. As to the kind of experiment: Intranasal PZ6005 in obese mice: ARC CSPG-ECM expression (WFA immunostaining). In kind it is in vivo, C57BL/6J mice. The following applies: for ARC neurofibrosis / area and intensity of ARC CSPG-ECM: obese mice, intranasal 14 days, 1 or 5 mg/animal/day. The protocol:
All image quantification was performed in Image J (NIH) software (NIH, MA). Raw images underwent background subtraction using a rolling ball algorithm to minimize background and any potential variance in tissue autofluorescence. To quantify area and intensity of the CSPG-ECM within each brain region (ARC, VMH or RSG cortex) images were thresholded and binarized to create a region of interest (ROI) mask of only the CSPG-ECM. For each brain area, CSPG-ECM ROI area (μm^2) and intensity (sum of all pixel intensities within the ROI) was calculated. This process was automated to minimise bias and to account for differences in brain nuclei size across multiple images. Brain nuclei were defined in accordance with the Paxinos and Franklin mouse brain atlas (http://labs.gaidi.ca/mouse-brain-atlas/). The area and intensity of CSPG-ECM within each region was normalised to the respective control.

Test [3] relates to HFHS plus low dose STZ mice. The test is described as follows: I.C.V. fluorosamine in late-stage type-2 diabetes model (HFHS plus low dose streptozotocin). The following applies: I.C.V. for 14 days. In kind it is in vivo, C57BL/6J mice. The protocol: Mice were maintained on a 12 h light-dark cycle in a temperature-controlled high-barrier facility with free access to food and water per NHMRC Australian Code of Practice for the Care and Use of Animals. C57BL/6J and Balb/C mice were sourced from the Animal Resources Centre, Australian, whereas Agrp-IRES-Cre (Strain #:012899), db/db (strain #: 000697), Npy-GFP (Strain #:006417), Pomc-GFP (Strain #:009593), LSL-Cas9 (Strain #:028551), NZO (Strain #:002105) mice were sourced from Jackson Laboratories, USA. […]
Metabolic measurements were undertaken in the Melbourne Mouse Metabolic Phenotyping Platform (The University of Melbourne, Australia). […] The areas under glucose excursion curves were determined and expressed as mmol/l×min. Fasted (12 h fast) plasma insulin or glucose levels were determined using a Rat/Mouse Insulin ELISA (EZRMI-13K, Merck Millipore, CA) or an Accu-Check glucometer respectively. The HOMA-IR was calculated using the equation [(glucose×insulin)/405]. Adiposity was measured using TD-NMR minispec (Bruker Optics Inc., Billerica, MA). […]

Where [4] appears, read: intranasal 1 mg/animal/day, 14 days.

In the case of `CC(=O)NC1C(OC(C)=O)OC(COC(C)=O)[C@@H](F)C1OC(C)=O` (some centres unmarked) [PZ6005, per-O-acetylated-4-F-N-acetylglucosamine], the “ARC pAKT +ve. cells” value in test [1] was “more ARC pAKT +ve. cells”. In addition, the “CSPG-ECM area lower than the controls” value in test [2] (setting [4]) is 13.54±1.03%; in test [2] (intranasal 5 mg/animal/day, 14 days) it was 13.59±4.09%. Further, the “CSPG-ECM intensity decreased by” value in test [2] (setting [4]) is 15.94±7.17%. The “CSPG-ECM intensity reduced by” value in test [2] (intranasal 5 mg/animal/day (highest dose), 14 days) was found to be 30.16±1.52%. The “ARC neurofibrosis / area and intensity of ARC CSPG-ECM” value in test [2] is given as “robustly diminished”; in test [2] (listed as fluorosamine), “successfully attenuated”. Further, the “remission of metabolic disease (daily blood glucose, glucose tolerance)” value in test [3] is “promote the remission of metabolic disease”.
